Reference: patent publication US6080738A, “Heterocyclic amide compounds and medicinal uses thereof” (Yoshitomi Pharmaceuticals Industries, Ltd., priority 1996, dated 2000)

Target: T1, human heart chymase (Homo sapiens, UniProt P23946)
T1 sequence (P23946 22-247): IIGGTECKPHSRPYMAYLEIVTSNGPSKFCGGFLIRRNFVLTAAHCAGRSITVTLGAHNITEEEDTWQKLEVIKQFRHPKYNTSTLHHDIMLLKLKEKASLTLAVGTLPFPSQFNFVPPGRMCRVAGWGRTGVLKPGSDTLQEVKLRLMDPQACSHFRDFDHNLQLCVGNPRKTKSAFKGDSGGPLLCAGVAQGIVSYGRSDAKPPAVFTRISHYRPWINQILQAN
Assay: Inhibitory activity on amidase activity of human heart chymase
Type: biochemical
Conditions: 5 nM chymase; substrate succinyl-alanyl-alanyl-prolyl-phenylalanine-p-nitroanilide 2.5 mM; Tris-HCl (100 mM)-KCl (2 M), pH 7.5
Procedure: The effectiveness of the inhibitory activity of compound (I) and compound (XXVI) of the present invention was evaluated based on the inhibitory activity on amidase activity of human heart chymase, which was determined as in the following.
The inhibitory activity was quantitatively determined through variation in fractional residual activity of the enzyme caused by the inventive compound in defined serial concentration (<×1, <×10, <×100-fold equivalents) relative to 5 nM chymase in the presence of synthetic substrate, succinyl-alanyl-alanyl-prolyl-phenylalanine-p-nitroanilide (final concentration 2.5 mM). The inhibitory effect was analyzed by least square regression of Easson-Stedman plot (Proc. Roy. Soc. B. 1936, 121, p. 141) utilizing bimolecular equilibrium reaction linearization formula. The inhibitory activity was evaluated by the apparent inhibitory constant (Kiapp) obtained by this analysis and inhibitory constant (Ki) calculated from final substrate concentration in the reaction mixture and Km values separately determined. With regard to the quantlitative determination of initial rate of the enzyme reaction, the amount of p-nitroaniline produced by hydrolysis of the substrate was spectrophotometrically detected in terms of an increased absorbance which was obtained by subtracting absorbance at 650 nm wavelength from the absorbance at 405 nm. The chymase inhibitory activity of the compound of the present invention was calculated as ratio of residual activity in the presence of inhibitor relative to enzyme activity in the absence of inhibitor, and incorporation of the determination values was completed at a level less than initial rate guarantee absorbance at a concentration of the substrate used for the enzyme, after which analysis was performed.
The reaction mixture consisted of a buffer (pH 7.5, 140 μl) of Tris-HCl (100 mM) - KCl (2 M), the inventive compound dissolved in 20 μl of 10% dimethyl sulfoxide (DMSO), substrate dissolved in 20 μl of DMSO, and 20 μl of chymase, thus amounting to 200 μl in total.
Starting with the absorbance immediately after addition of the enzyme, increases in absorbance were recorded as a progressive curve taken precisely at equal time intervals.
From the above data, the difference between absorbances at completion of the reaction and immediately after addition was used to quantitatively determine the residual activity of the sample added with the inhibitor relative to a control wherein the inhibitor was not added. Alternatively, reaction rates of the control and the sample added with the inhibitor were calculated for certain time period (≥20 min) with successive shift (every 10 to 30 minutes) of the period, and the residual activity ratio was quantitatively determined and analyzed from the respective reaction rates averaged through the entire reaction time.

Compound | Ki [nM]
COC(=O)c1ccc2oc(C(=O)C(Cc3ccccc3)NC(=O)Cn3c(-c4ccc(F)cc4)ncc(NC(=O)OCc4ccccc4)c3=O)nc2c1 (centres unmarked) [Example 3, 2-[5-benzyloxycarbonylamino-2-(4-fluorophenyl)-6-oxo-1,6-dihydro-1-pyrimidinyl]-N-[1-[[5-(methoxycarbonyl)benzoxazol-2-yl]carbonyl]-2-phenylethyl]acetamide] | 1300
Nc1cnc(-c2ccc(F)cc2)n(CC(=O)NC(Cc2ccccc2)C(=O)c2nc3cc(C(=O)O)ccc3o2)c1=O (centres unmarked) [Example 5, 2-[5-amino-2-(4-fluorophenyl)-6-oxo-1,6-dihydro-1-pyrimidinyl]-N-[1-[(5-carboxylbenzoxazol-2-yl)carbonyl]-2-phenylethyl]acetamide] | 76
COC(=O)c1ccc2nc(C(=O)C(Cc3ccccc3)NC(=O)Cn3c(-c4ccc(F)cc4)ncc(N)c3=O)oc2c1 (centres unmarked) [Example 7, 2-[5-amino-2-(4-fluorophenyl)-6-oxo-1,6-dihydro-1-pyrimidinyl]-N-[1-[[6-(methoxycarbonyl)benzoxazol-2-yl]carbonyl]-2-phenylethyl]acetamide] | 56
O=CC(Cc1ccccc1)NC(=O)Cn1c(-c2ccc(F)cc2)ncc(NC(=O)OCc2ccccc2)c1=O (centres unmarked) [Example 9, 2-[5-benzyloxycarbonylamino-2-(4-fluorophenyl)-6-oxo-1,6-dihydro-1-pyrimidinyl]-N-(1-formyl-2-phenylethyl)acetamide] | 1840
Nc1ccc2oc(C(=O)C(Cc3ccccc3)NC(=O)Cn3c(-c4ccc(F)cc4)ncc(N)c3=O)nc2c1 (centres unmarked) [Example 15, 2-[5-amino-2-(4-fluorophenyl)-6-oxo-1,6-dihydro-1-pyrimidinyl]-N-[1-[(5-aminobenzoxazol-2-yl)carbonyl]-2-phenylethyl]acetamide] | 183
Nc1cnc(-c2ccc(F)cc2)n(CC(=O)NC(Cc2ccccc2)C(=O)c2nc3cc(NS(=O)(=O)C(F)(F)F)ccc3o2)c1=O (centres unmarked) [Example 17, 2-[5-amino-2-(4-fluorophenyl)-6-oxo-1,6-dihydro-1-pyrimidinyl]-N-[1-[[5-(trifluoromethanesulfonylamino)benzoxazol-2-yl]carbonyl]-2-phenylethyl]acetamide] | 130
O=C(Cn1c(-c2ccc(F)cc2)ncc(NC(=O)OCc2ccccc2)c1=O)NC(Cc1ccccc1)C(=O)c1nccs1 (centres unmarked) [Example 21, 2-[5-benzyloxycarbonylamino-2-(4-fluorophenyl)-6-oxo-1,6-dihydro-1-pyrimidinyl]-N-[2-phenyl-1-[(2-thiazolyl)carbonyl]ethyl]acetamide] | 111
O=C(Cn1c(-c2ccc(F)cc2)ncc(NC(=O)OCc2ccccc2)c1=O)NC(Cc1ccccc1)C(=O)C1=NCCO1 (centres unmarked) [Example 23, 2-[5-benzyloxycarbonylamino-2-(4-fluorophenyl)-6-oxo-1,6-dihydro-1-pyrimidinyl]-N-[1-[(2-oxazolinyl)carbonyl]-2-phenylethyl]acetamide] | 48
Nc1cnc(-c2ccc(F)cc2)n(CC(=O)NC(Cc2ccccc2)C(=O)c2nc3cc(F)ccc3o2)c1=O (centres unmarked) [Example 26, 2-[5-amino-2-(4-fluorophenyl)-6-oxo-1,6-dihydro-1-pyrimidinyl]-N-[1-[(5-fluorobenzoxazol-2-yl)carbonyl]-2-phenylethyl]acetamide] | 93
CN(C)C(=O)c1ccc2oc(C(=O)C(Cc3ccccc3)NC(=O)Cn3c(-c4ccc(F)cc4)ncc(NC(=O)OCc4ccccc4)c3=O)nc2c1 (centres unmarked) [Example 31, 2-[5-benzyloxycarbonylamino-2-(4-fluorophenyl)-6-oxo-1,6-dihydro-1-pyrimidinyl]-N-[1-[[5-(dimethylaminocarbonyl)benzoxazol-2yl)carbonyl]-2-phenylethyl]acetamide] | 16
Nc1cnc(-c2ccc(F)cc2)n(CC(=O)NC(Cc2ccc(F)cc2)C(=O)c2nc3ccccc3o2)c1=O (centres unmarked) [Example 40, 2-[5-amino-2-(4-fluorophenyl)-6-oxo-1,6-dihydro-1-pyrimidinyl]-N-[1-[(benzoxazol-2-yl)carbonyl]-2-(4-fluorophenyl)ethyl]acetamide] | 990
CCOC(=O)c1ccc2oc(C(=O)C(Cc3ccccc3)NC(=O)Cn3c(-c4ccccc4)ncc(N)c3=O)nc2c1 (centres unmarked) [Example 44] | 2
O=C(Cn1c(-c2ccccc2)ncc(NC(=O)OCc2ccccc2)c1=O)NC(Cc1ccccc1)C(=O)c1nc2ncccc2o1 (centres unmarked) [Example 45, 2-(5-benzyloxycarbonylamino-6-oxo-2-phenyl-1,6-dihydro-1-pyrimidinyl)-N-[1-[(oxazolo[4,5-b]pyridin-2-yl)carbonyl]-2-phenylethyl]acetamide] | 24
Cc1cccc(-c2ncc(NC(=O)OCc3ccccc3)c(=O)n2CC(=O)NC(Cc2ccccc2)C(=O)c2nc3cc(C(N)=O)ccc3o2)c1 (centres unmarked) [Example 53, 2-[5-benzyloxycarbonylamino-6-oxo-2-(m-tolyl)-1,6-dihydro-1-pyrimidinyl]-N-[1-[(5-carbamoylbenzoxazol-2-yl)carbonyl]-2-phenylethyl]acetamide] | 66
CCNC(=O)c1ccc2oc(C(=O)C(Cc3ccccc3)NC(=O)Cn3c(-c4cccc(C)c4)ncc(NC(=O)OCc4ccccc4)c3=O)nc2c1 (centres unmarked) [Example 55, 2-[5-benzyloxycarbonylamino-6-oxo-2-(m-tolyl)-1,6-dihydro-1-pyrimidinyl]-N-[1-[[5-(ethylaminocarbonyl)benzoxazol-2-yl]carbonyl]-2-phenylethyl]acetamid] | 59
CCN(CC)C(=O)c1ccc2oc(C(=O)C(Cc3ccccc3)NC(=O)Cn3c(-c4cccc(C)c4)ncc(N)c3=O)nc2c1 (centres unmarked) [Example 58, 2-[5-amino-6-oxo-2-(m-tolyl)-1,6-dihydro-1-pyrimidinyl]-N-[1-[[5-(diethylaminocarbonyl)benzoxazol-2-yl]carbonyl]-2-phenylethyl]acetamide] | 12
CCOC(=O)c1ccc2oc(C(=O)C(Cc3ccccc3)NC(=O)Cn3c(-c4cccnc4)ncc(N)c3=O)nc2c1 (centres unmarked) [Example 64, 2-[5-amino-6-oxo-2-(3-pyridyl)-1,6-dihydro-1-pyrimidinyl]-N-[1-[[5-(ethoxycarbonyl)benzoxazol-2yl]carbonyl]-2-phenylethyl]acetamide] | 45
Nc1cnc(-c2cccnc2)n(CC(=O)NC(Cc2ccccc2)C(=O)c2nc3ncccc3o2)c1=O (centres unmarked) [Example 72, 2-[5-amino-6-oxo-2-(3-pyridyl)-1,6-dihydro-1-pyrimidinyl]-N-[1-[(oxazolo[4,5-b]pyridin-2-yl)carbonyl]-2-phenylethyl]acetamide] | 74
COC(=O)c1ccc2oc(C(=O)C(Cc3ccccc3)NC(=O)Cn3c(-c4ccncc4)ncc(NC(=O)OCc4ccccc4)c3=O)nc2c1 (centres unmarked) [Example 73, 2-[5-benzyloxycarbonylamino-6-oxo-2-(4-pyridyl)-1,6-dihydro-1-pyrimidinyl]-N-[1-[[5-(methoxycarbonyl)benzoxazol-2-yl]carbonyl]-2-phenylethyl]acetamide] | 59
COC(=O)c1ccc2oc(C(=O)C(Cc3ccccc3)NC(=O)Cn3c(-c4cccc([N+](=O)[O-])c4)ncc(N)c3=O)nc2c1 (centres unmarked) [Example 80, 2-[5-amino-2-(3-nitrophenyl)-6-oxo-1,6-dihydro-1-pyrimidinyl]-N-[1-[[5-(methoxycarbonyl)benzoxazol-2-yl]carbonyl]-2-phenylethyl]acetamide] | 42
COC(=O)c1ccc2oc(C(=O)C(Cc3ccccc3)NC(=O)Cn3c(-c4cccc(OC)c4)ncc(N)c3=O)nc2c1 (centres unmarked) [Example 88, 2-[5-amino-2-(3-methoxyphenyl)-6-oxo-1,6-dihydro-1-pyrimidinyl]-N-[1-[[5-(methoxycarbonyl)benzoxazol-2-yl]carbonyl]-2-phenylethyl]acetamide] | 5
COC(=O)c1ccc2oc(C(=O)C(Cc3ccccc3)NC(=O)Cn3c(-c4cccc(N)c4)ncc(N)c3=O)nc2c1 (centres unmarked) [Example 93, 2-[5-amino-2-(3-aminophenyl)-6-oxo-1,6-dihydro-1-pyrimidinyl]-N-[1-[[5-(methoxycarbonyl)benzoxazol-2-yl]carbonyl]-2-phenylethyl]acetamide] | 6
CC(=O)Nc1cnc(-c2ccc(F)cc2)n(CC(=O)NC(Cc2ccccc2)C(=O)c2nc3ccccc3o2)c1=O (centres unmarked) [Example 94, 2-[5-acetamide-2-(4-fluorophenyl)-6-oxo-1,6-dihydro-1-pyrimidinyl]-N-[1-[(benzoxazol-2-yl)carbonyl]-2-phenylethyl]acetamide] | 58
